Where a name gives a salt, the structure may show the parent alone.
How the values were obtained:
[1] = system: SRS-A; test: Anti-SRS-A activity by Magnus method, isolated guinea pig ileum; assay type: cell-based; details: Cavia porcellus, read-out: Inhibition (anti-SRS-A activity, inhibition rate); for inhibition at 1 µM: drug at 10^-6 M (values marked *); for inhibition at 1 µg/mL: 5 min, drug at 10^-6 g/ml (values without *)
Description: Anti-SRS-A activity of the drugs (the compounds of the present invention) was assayed by using isolated ileum of guinea pig (weighing 300-400 g, male).
SRS-A sample was prepared as follows.
Male albino guinea-pigs were administered by intraperitoneal and subcutaneous injection of 50 mg ovalbumin emulsified with a half amount of Freund's complete adjuvant every other day (total three times). 4 Weeks after the administration lungs were isolated from guinea-pigs and chopped into small pieces. The tissue was placed in Tyrode solution containing indomethacin (1μg/ml) and incubated at 37° C. for 15 min. The incubated solution was then centrifuged and the supernatant fluid was used for the SRS-A sample.
The anti-SRS-A activity was assayed by Magnus method, i.e. a modified method by Eda et al. [cf. Bulletin of Pharmacology in Japan, 66, 194-213 (1970)] using isolated guinea pig ileum. That is, an isolated ileum of guinea pig was hung within an organ bath which was filled with a Tyrode solution containing mepyramine (0.4 μg/ml) and atropine (0.35,/μg/ml) at 37° C. under aeration. The SRS-A sample was given until reproducible contractions were obtained. A solution of the drug (the compounds of the present inventions was added thereto in the final concentration of 10^-6 g/ml or 10^-6 M. After 5 minutes, the SRS-A sample was again acted, and the change of contractile response was measured. Based on the change of contractile response, the anti-SRS-A activity (inhibition rate) was calculated by the following equation: [formula] wherein
a^1 : Contractile response before administration of a drug.
a^2 : Contractile response after administration of a drug.

[2] = biological target: T1, 5-lipoxygenase (Cavia porcellus, UniProt A0A286X958); test: 5-Lipoxygenase inhibitory activity (inhibition of 5-HETE production) in guinea pig abdominal leucocytes; assay type: cell-based; details: 10 μM compound, A 23187, 14C-arachidonic acid, read-out: Inhibition (5-HETE production, inhibition rate)
T1 construct: leucocytes isolated from abdominal cavity of guinea pig; endogenous in cells; host or cells: leucocytes isolated from the abdominal cavity of guinea pig (intact cells)
T1 sequence (A0A286X958 1-674): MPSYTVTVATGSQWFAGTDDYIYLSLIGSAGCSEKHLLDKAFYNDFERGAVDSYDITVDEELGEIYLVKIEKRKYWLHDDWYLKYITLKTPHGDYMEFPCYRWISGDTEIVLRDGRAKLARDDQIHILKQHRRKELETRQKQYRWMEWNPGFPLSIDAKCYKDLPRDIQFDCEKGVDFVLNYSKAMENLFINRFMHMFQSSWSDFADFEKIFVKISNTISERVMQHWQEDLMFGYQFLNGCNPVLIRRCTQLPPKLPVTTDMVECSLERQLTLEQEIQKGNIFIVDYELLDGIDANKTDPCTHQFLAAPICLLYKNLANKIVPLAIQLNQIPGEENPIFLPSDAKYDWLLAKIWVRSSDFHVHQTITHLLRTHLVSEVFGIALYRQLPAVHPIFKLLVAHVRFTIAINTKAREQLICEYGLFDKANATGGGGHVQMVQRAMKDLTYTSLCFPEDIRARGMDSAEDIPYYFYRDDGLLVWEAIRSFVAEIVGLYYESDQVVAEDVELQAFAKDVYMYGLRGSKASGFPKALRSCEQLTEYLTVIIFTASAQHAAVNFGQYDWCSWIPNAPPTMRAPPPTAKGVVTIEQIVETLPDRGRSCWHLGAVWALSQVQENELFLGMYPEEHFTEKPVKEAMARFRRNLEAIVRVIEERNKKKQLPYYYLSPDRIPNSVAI
Description: The inhibitory activity was assayed in the same manner as described by J. Harvey et al. That is, leucocytes isolated from abdominal cavity of guinea pig were suspended in Krebs Ringer buffer (KRB, pH 7.4) in a concentration of 2.2×10^7 […]. The leucocytes suspension (935 μl) was preincubated with shaking at 37° C. for 10 minutes, and thereto was added a solution (10 μl) of test drugs (the compounds of the present invention) in dimethylsulfoxide (DMSO) (the final concentration of the compound being 10 μM in the solution). The mixture was incubated for 10 minutes, and then, ^14 C-arachidonic acid (0.1 μCi, 50 μl) (in 5% ethanol/KRB) and A 23187 (J. Pharmacol. Methods, 9, 147-155(1983), 5 μg in 5 μl DMSO) were added thereto, and the mixture was further incubated for 10 minutes. Ice-cooled 0.2M aqueous citric acid solution (100 μl) was added thereto in order to stop the reaction, and then, water (4 ml) was further added thereto. The mixture was twice extracted with ethyl acetate (each 2.5 ml), and the organic layer was distilled to dryness under nitrogen. The resulting residue was dissolved in ethyl acetate and the solution was applied onto a TLC plate. After developing with toluene-dioxane-acetic acid (65:34:1.5 V/V), 5-HETE (5-hydroxyeicosatetraenoic acid) produced by 5-lipoxygenase was measured with TLC scanner. The inhibition rate (%) was calculated by comparing the amount of 5-HETE between the addition and non-addition of a drug by the following equation: [formula] wherein
b^1 : Amount of produced 5-HETE in case of non-addition of a drug.
b^2 Amount of produced 5-HETE in case of addition of a drug.

| inhibition at 10 µM [2] | Compound | inhibition at 1 µM [1] | inhibition at 1 µg/mL [1] |
| --- | --- | --- | --- |
|  | O=C([C@@H](NCCCc1ccccc1)[C@H](O)c1ccc(O)c(O)c1)N1CCCC1 (relative stereo) [Compd. No. 13] | 100% |  |
| > 70% | CC(CCc1ccccc1)N[C@H](C(=O)N1CCCC1)[C@H](O)c1ccc(O)c(O)c1 (relative stereo) [Compd. No. 19, DL-Threo-3-(3,4-dihydroxyphenyl)-N-(1-methyl-3phenylpropyl)serine pyrrolidine amide] |  | 100% |
|  | COC(=O)[C@@H](NC(C)CCc1ccccc1)[C@H](O)c1ccc(O)c(O)c1 (relative stereo) [Compd. No. 120, DL-threo-3-(3,4-dihydroxyphenyl)-N-(1-methyl-3-phenylpropyl)serine methyl ester] |  | 97% |
| > 70% | COC(=O)[C@@H](NC(C)CCc1ccc(OC)cc1)[C@H](O)c1ccc(O)c(O)c1 (relative stereo) [Compd. No. 122, DL-threo-3-(3,4-dihydroxyphenyl)-N-[1-methyl-3-(p-methoxyphenyl)propyl]serine methyl ester] |  | 94% |
| > 70% | CCOC(=O)[C@@H](NC(C)CCc1ccccc1)[C@H](O)c1ccc(O)c(O)c1 (relative stereo) [Compd. No. 132, DL-Threo-3-(3,4-dihydroxyphenyl)-N-(1-methyl-3-phenylpropyl)serine ethyl ester] |  | 82% |
|  | CC(CCc1ccccc1)N[C@H](C(=O)OC(C)C)[C@H](O)c1ccc(O)c(O)c1 (relative stereo) [Compd. No. 158, DL-threo-3-(3,4-dihydroxyphenyl)-N-(1-methyl-3-phenylpropyl)serine isopropyl ester] |  | 96% |
|  | CC(C)COC(=O)[C@@H](NC(C)CCc1ccccc1)[C@H](O)c1ccc(O)c(O)c1 (relative stereo) [Compd. No. 170, DL-threo-3-(3,4-dihydroxyphenyl)-N-(1-methyl-3-phenylpropyl)serine isobutyl ester] |  | 85% |
|  | CC(CCc1ccccc1)N[C@H](C(=O)NN)[C@H](O)c1ccc(O)c(O)c1 (relative stereo) [Compd. No. 178, DL-threo-3-(3,4-dihydroxyphenyl)-N-(1-methyl-3-phenylpropyl)serine hydrazide] |  | 81% |
| > 70% | CC(CCc1ccccc1)N[C@H](CO)[C@H](O)c1ccc(O)c(O)c1 (relative stereo) [Compd. No. 183, DL-threo-1-(3,4-dihydroxyphenyl)-2-(1-methyl-3-phenylpropyl)amino-1,3-propanediol 1/2 oxalate] |  | 97% |
|  | CC(CCc1ccccc1)N[C@H](COC(N)=O)[C@H](O)c1ccc(O)c(O)c1 (relative stereo) [Compd. No. 189, DL-threo-1-(3,4-dihydroxyphenyl)-2-(1-methyl-3-phenylpropyl)-amino-3-carbamoyloxypropanol] |  | 98% |
|  | CNC(=O)[C@@H](NC(C)CCc1ccccc1)[C@H](O)c1ccc(O)c(O)c1 (relative stereo) [compound 48] |  | 100% |
| > 70% | CC(CCc1ccccc1)N[C@H](C(=O)N1CCc2ccccc21)[C@H](O)c1ccc(O)c(O)c1 (relative stereo) [compound 77] | 96% |  |
| > 70% | COC(=O)[C@@H](NC(C)CCC(C)C)[C@H](O)c1ccc(O)c(O)c1 (relative stereo) [compound 142] |  | 91% |
|  | COC(=O)[C@@H](NC(C)CCc1ccc(O)cc1)[C@H](O)c1ccc(O)c(O)c1 (relative stereo) [compound 143] |  | 83% |
|  | COC(=O)[C@@H](NC(C)CCCCC(=O)Nc1ccc(C(F)(F)F)cc1)[C@H](O)c1ccc(O)c(O)c1 (relative stereo) [compound 146] |  | 94% |
|  | CCCCc1ccc(NC(=O)CCCCC(C)N[C@H](C(=O)OC)[C@H](O)c2ccc(O)c(O)c2)cc1 (relative stereo) [compound 147] |  | 100% |
|  | CC(CCc1ccccc1)N[C@H](C(N)=O)[C@H](O)c1ccc(O)c(O)c1 (relative stereo) [compound 177, DL-threo-3-(3,4-dihydroxphenyl)-N-(1-methyl-3-phenylpropyl)serine amide] |  | 86% |
|  | CC(CCc1ccccc1)N[C@H](C(=O)N1CCCC1)[C@H](O)c1ccc(O)c(O)c1 (stereo partly drawn) [Compd. No. 10, L-Threo-3-(3,4-dihydroxyphenyl)-N-(1-methyl-3-phenylpropyl)serine pyrrolidine amide] | 100% |  |
|  | COC(=O)[C@H](NC(C)CCc1ccccc1)[C@@H](O)c1ccc(O)c(O)c1 (stereo partly drawn) [Compd. No. 156, D-threo-3-(3,4-dihydroxyphenyl)-N-(1-methyl-3-phenylpropyl)serine methyl ester] |  | 90% |
|  | COc1cc(C)c(CCC(C)N[C@H](C(=O)N2CCCC2)[C@H](O)c2ccc(O)c(O)c2)c(C)c1C (some centres unmarked) [compound 28] | 94% |  |
|  | CC(CCc1ccc(F)cc1)N[C@H](C(=O)N1CCCC1)[C@H](O)c1ccc(O)c(O)c1 (some centres unmarked) [compound 29] | 97% |  |
|  | CC(CCc1cccc2ccccc12)N[C@H](C(=O)N1CCCC1)[C@H](O)c1ccc(O)c(O)c1 (some centres unmarked) [compound 34] | 92% |  |
|  | CC(CCc1ccco1)N[C@H](C(=O)N1CCCC1)[C@H](O)c1ccc(O)c(O)c1 (some centres unmarked) [compound 35] | 87% |  |
|  | CCCCc1ccc(NC(=O)CCCCC(C)N[C@H](C(=O)N2CCCC2)[C@H](O)c2ccc(O)c(O)c2)cc1 (some centres unmarked) [compound 41] | 81% |  |
|  | CC(CCCCC(=O)Nc1ccc(C(F)(F)F)cc1)N[C@H](C(=O)N1CCCC1)[C@H](O)c1ccc(O)c(O)c1 (some centres unmarked) [compound 42] | 97% |  |
|  | COC(=O)[C@@H]1CCCN1C(=O)[C@@H](NC(C)CCc1ccccc1)[C@H](O)c1ccc(O)c(O)c1 (some centres unmarked) [compound 65] | 85% |  |

— patent publication US4695580A, “Phenylserine derivatives and processes for preparing the same” (Sumitomo Pharmaceuticals Company, Ltd., priority 1983, dated 1987)
